Publication PMC545952, “Analysis of the kinetic mechanism of recombinant human isoprenylcysteine carboxylmethyltransferase (Icmt)” (BMC Biochemistry, 2004)
“And” between values parts separate entries of the source, which are not always exact repeats. Equal values may be shown once. Read-outs that look alike come from different tables or passages of the source.

How the values were obtained:
[1] = test system: methyltransferase activity in rod outer segments; settings: cited from earlier work; for Ki: previous study, rod outer segments
[2] = target: T1, recombinant human Icmt (Homo sapiens, UniProt O60725); assay: Icmt assay: [3H]methyl incorporation into BFC, Sf9 membranes containing recombinant human Icmt; assay type: biochemical; settings: for Km: substrate of recombinant human Icmt, in vitro methylation assay, read-out: Km (apparent) as substrate
T1 construct: a recombinant baculovirus containing the entire open reading frame of the human Icmt cDNA; made in house; host or cells: Sf9 insect cells (baculovirus); membrane fraction used
Excerpt: Streptavidin-sepharose beads were purchased from Amersham, trans, trans-farnesyl bromide, biotin N-hydroxysuccinimide ester and S-(5'-adenosyl)-L-methionine p-toluenesulfonate were purchased from Sigma-Aldrich, L-cysteine was purchased from Novabiochem, [^3H-methyl]-S-adenosyl-L-methionine was purchased from Perkin Elmer Life Sciences, farnesylthioacetic acid (FTA) was purchased from Biomol, S-(5'-adenosyl)-L-homocysteine was purchased from Fluka. The N-acetyl-S-farnesylcysteine methyl ester (AFCME) and N-acetyl-S-farnesylcysteine methyl amide (AFCMA) were synthesized as previously described ([24-26]). Recombinant human Icmt was prepared by infection of Sf9 cells with a recombinant baculovirus containing the entire open reading frame of the human Icmt cDNA as described. The membrane fraction of the infected Sf9 cells, isolated as described for studies with the Rce1 protease, was used as the source of Icmt for all studies described.
The assay developed for Icmt activity involved quantitation of [^3H]methyl incorporation into the small molecule substrate BFC. For the standard assay, reactions were initiated by addition of Sf9 membranes containing Icmt (0.5 μg protein) to an assay mixture containing BFC (4 μM) and [^3H]AdoMet (5 μM, 1.3 Ci/mmol) in100 mM Hepes, pH 7.4 and 5 mM MgCl2 in a total volume of 45 μl. Reactions were carried out for 20 min at 37°C, whereupon they were terminated by addition of 5 μl of 10% Tween 20. Following termination, streptavidin beads (10 μl of packed beads suspended in 500 μl of 20 mM NaH2PO4, pH 7.4, contaning 150 mM NaCl) were added, and the mixtures mixed by gentle agitation overnight at 4°C. The beads were harvested by centrifugation in a tabletop microcentrifuge at 10,000 rpm for 5 min and washed 3 times with 500 μl of 20 mM NaH2PO4, pH 7.4, containing 150 mM NaCl. The beads were then suspended in 100 μl of the same buffer, transferred to scintillation vials, and radioactivity determined. For the kinetic analyses, the concentrations of substrates (AdoMet, BFC) or additional ligands (eg. AdoHcy, AFCME, etc) were varied as detailed in the legends to the appropriate figures.

[3] = varied AdoMet, fixed BFC 4 μM, read-out: Ki with respect to AdoMet
[4] = varied BFC, fixed AdoMet 5 μM, read-out: Ki with respect to BFC

T1 sequence (O60725 whole entry): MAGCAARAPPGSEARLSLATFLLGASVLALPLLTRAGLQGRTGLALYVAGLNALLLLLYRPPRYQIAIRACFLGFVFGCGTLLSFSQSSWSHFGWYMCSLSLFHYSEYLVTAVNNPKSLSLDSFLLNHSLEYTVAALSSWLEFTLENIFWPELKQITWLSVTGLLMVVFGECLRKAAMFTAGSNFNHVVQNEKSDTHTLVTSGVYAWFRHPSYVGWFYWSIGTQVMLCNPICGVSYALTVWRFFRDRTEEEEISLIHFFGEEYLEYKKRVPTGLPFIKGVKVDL

Row | type of inhibition with respect to AdoMet ([2]; varied AdoMet, fixed BFC 4 μM) | type of inhibition with respect to BFC ([2]; varied BFC, fixed AdoMet 5 μM) | Ki [2, 4] | Compound | also measured
1 |  |  |  | CC(=O)N[C@@H](CSCC=C(C)CCC=C(C)CCC=C(C)C)C(=O)O [AFC, N-acetyl-L-farnesylcysteine] | Km ([1]; read-out: apparent Km as substrate): 20 µM; apparent Km relative to Km of BFC ([2]; AFC Km (ref 20, 31) versus BFC Km 2.1 μM): 10 fold
2 |  |  |  | CNC(=O)[C@H](CSCC=C(C)CCC=C(C)CCC=C(C)C)NC(C)=O [AFCMA, N-acetyl-S-farnesyl-L-cysteine methyl amide] | product inhibition results compared with AFCME ([2]; second prenylcysteine-type product analog, data not shown): essentially identical results
3 | Mixed-type | Noncompetitive | 1.9 µM and 1.91 µM | COC(=O)[C@H](CSCC=C(C)CCC=C(C)CCC=C(C)C)NC(C)=O [AFCME, N-acetyl-S-farnesyl-L-cysteine methylester] | Ki ([1]; compared with the value with respect to BFC, read-out: inhibition constant with respect to prenylcysteine substrate): 41 µM; Ki ([1]; read-out: inhibition constant with respect to AdoMet): 73 µM; Ki [2, 3]: 2.4 µM and 2.43 µM
4 | Competitive | Competitive | 3.6 µM and 3.59 µM | Nc1ncnc2c1ncn2[C@@H]1O[C@H](CSCC[C@H](N)C(=O)O)[C@@H](O)[C@H]1O [AdoHcy, S-adenosyl-L-homocysteine] | Ki [2, 3]: 3.5 µM and 3.54 µM
5 |  |  |  | C[S+](CC[C@H](N)C(=O)[O-])C[C@H]1O[C@@H](n2cnc3c(N)ncnc32)[C@H](O)[C@@H]1O (stereo partly drawn) [AdoMet, S-adenosyl-L-methionine] | Km [2]: 7.8 µM
6 |  |  |  | CC(C)=CCC/C(C)=C/CC/C(C)=C/CSC[C@H](NC(=O)CCCCC1SCC2NC(=O)NC21)C(=O)O (stereo partly drawn) [BFC, biotin-S-farnesyl-L-cysteine] | Km [2]: 2.1 µM
7 | Uncompetitive | Competitive | 1.2 µM and 1.17 µM | CC(C)=CCC/C(C)=C/CC/C(C)=C/CSCC(=O)O [FTA, S-farnesylthioacetic acid] | 
